Source: US11732017B2, “HLA-A24 agonist epitopes of MUC1-C oncoprotein and compositions and methods of use” (The USA, as represented by the Secretary, Dept. of Health …, priority 2013, dated 2023)

Legend:
Assay type in all cases: cell-based, human
[1] = tested on: PBMCs from vaccinated cancer patients; assay: Establishment of T-cell lines with peptide-pulsed APCs
Excerpt: Patients-PBMCs were used from two patients with prostate cancer enrolled in a previously described clinical trial of PSA-TRICOM vaccine in combination with […] al., Lancet Oncol., 13: 501-8 (2012)). An institutional review board of the National Institutes of Health (NIH) Clinical Center had approved the procedures, and informed consent was obtained in accordance with the Declaration of Helsinki. […] Cells were restimulated every 7 days.

T-C7 T-cell line = assay: Detection of cytokines, T-cell line generated with native C7; details: 24 hours with peptide-pulsed B-cells
Description: (§1) Cells were restimulated every 7 days.
(§2) Detection of cytokines—Autologous B cells pulsed with peptides at different concentrations (25, 12.5, 6.25 and 3, 13, and 1.56 μg/ml) were incubated with MUC1-specific T-cell lines at a 2:1 ratio for 24 hours. The supernatants were analyzed for IFN-γ by ELISA (Invitrogen, Frederick, Md.).
(§3) Each cell line was then stimulated for 24 hours with B-cells pulsed with either the native C7 or agonist C7A peptide, and cytokine levels in the supernatant were analyzed.

T-C7A T-cell line = assay: Detection of cytokines, T-cell line generated with agonist C7A; details: 24 hours with peptide-pulsed B-cells
Description: as §1, §2, §3

T-C6A T-cell line = assay: Detection of cytokines, T-cell line generated with C6A
Description: as §1
Detection of cytokines—Autologous B cells pulsed with peptides at different concentrations (25, 12.5, 6.25 and 3, 13, and 1.56 μg/ml) were incubated with MUC1-specific T-cell lines at a 2:1 ratio for 24 hours.

[2] = T-cell line T-C6A stimulated with peptide
[3] = stimulation of the T-cell line generated with C6A

| Sequence | generation of T-cell lines using APCs pulsed with the peptide [1] | GM-CSF (T-C7 T-cell line) | IFN-γ (T-C7 T-cell line) | IL-2 (T-C7 T-cell line) | IL-6 (T-C7 T-cell line) | IL-8 (T-C7 T-cell line) | IL-10 (T-C7 T-cell line) | TNFα (T-C7 T-cell line) | GM-CSF (T-C7A T-cell line) | IFN-γ (T-C7A T-cell line) | IL-2 (T-C7A T-cell line) | IL-6 (T-C7A T-cell line) | IL-8 (T-C7A T-cell line) | IL-10 (T-C7A T-cell line) | TNFα (T-C7A T-cell line) | other results |
| --- | --- | --- | --- | --- | --- | --- | --- | --- | --- | --- | --- | --- | --- | --- | --- | --- |
| SYTNPAVAA [Peptide C7, native MUC1-C HLA-A24 peptide, position 502-510, reference compound] | could be generated | 237 pg/mL/2.5 × 10^5 T cells | 750 pg/mL/2.5 × 10^5 T cells | <2.4 pg/mL/2.5 × 10^5 T cells | 6.4 pg/mL/2.5 × 10^5 T cells | 6.8 pg/mL/2.5 × 10^5 T cells | 25 pg/mL/2.5 × 10^5 T cells | 21 pg/mL/2.5 × 10^5 T cells | 215 pg/mL/2.5 × 10^5 T cells | 680 pg/mL/2.5 × 10^5 T cells | <2.4 pg/mL/2.5 × 10^5 T cells | <2.4 pg/mL/2.5 × 10^5 T cells | 112 pg/mL/2.5 × 10^5 T cells | 92 pg/mL/2.5 × 10^5 T cells | 30 pg/mL/2.5 × 10^5 T cells | – |
| TYHPMSEYPT [Peptide C6, native MUC1-C HLA-A24 peptide, position 462-471, reference compound] | unsuccessful | – | – | – | – | – | – | – | – | – | – | – | – | – | – | – |
| KYHPMSEYAL [Peptide C6A] | could be generated | – | – | – | – | – | – | – | – | – | – | – | – | – | – | GM-CSF (T-C6A T-cell line; [2]): 1277 pg/mL/2.5 × 10^5 T cells; IFN-γ (T-C6A T-cell line; [2]): 3060 pg/mL/2.5 × 10^5 T cells; IL-2 (T-C6A T-cell line; [2]): 3630 pg/mL/2.5 × 10^5 T cells; IL-6 (T-C6A T-cell line; [2]): 7.6 pg/mL/2.5 × 10^5 T cells; IL-8 (T-C6A T-cell line; [2]): 11.8 pg/mL/2.5 × 10^5 T cells; IL-10 (T-C6A T-cell line; [2]): 16.4 pg/mL/2.5 × 10^5 T cells; TNFα (T-C6A T-cell line; [2]): 1021 pg/mL/2.5 × 10^5 T cells; GM-CSF level (T-C6A T-cell line; [3]): > 10,000 pg/mL/10^5 cells; IFN-γ level (T-C6A T-cell line; [3]): 2,651 pg/mL/10^5 cells; IL-2 level (T-C6A T-cell line; [3]): < 50 pg/mL/10^5 cells; IL-6 level (T-C6A T-cell line; [3]): < 50 pg/mL/10^5 cells; IL-8 level (T-C6A T-cell line; [3]): > 10,000 pg/mL/10^5 cells; IL-10 level (T-C6A T-cell line; [3]): < 50 pg/mL/10^5 cells; IL-12 level (T-C6A T-cell line; [3]): < 50 pg/mL/10^5 cells; TNF-α level (T-C6A T-cell line; [3]): 372 pg/mL/10^5 cells |
| KYTNPAVAL [Peptide C7A] | could be generated | 300 pg/mL/2.5 × 10^5 T cells | 1279 pg/mL/2.5 × 10^5 T cells | <2.4 pg/mL/2.5 × 10^5 T cells | 7.7 pg/mL/2.5 × 10^5 T cells | 7.3 pg/mL/2.5 × 10^5 T cells | 45 pg/mL/2.5 × 10^5 T cells | 30 pg/mL/2.5 × 10^5 T cells | 910 pg/mL/2.5 × 10^5 T cells | 2000 pg/mL/2.5 × 10^5 T cells | <2.4 pg/mL/2.5 × 10^5 T cells | 40 pg/mL/2.5 × 10^5 T cells | 360 pg/mL/2.5 × 10^5 T cells | 375 pg/mL/2.5 × 10^5 T cells | 70 pg/mL/2.5 × 10^5 T cells | – |
